Laboratory results published in patent publication US12286437B2, “Cardiac sarcomere inhibitors” (Cytokinetics, Inc., priority 2021, dated 2025).
Where two headings read alike, the source gives them in different places.

Legend:
[1] = test system: bovine cardiac myofibrils; assay: Myofibril assay (ATPase activity of skinned bovine cardiac myofibrils, PK/LDH-coupled); assay type: biochemical; conditions: inhibition of steady-state ATPase of bovine cardiac myofibrils; CaCl2 for 50% or 75% activation
Procedure, shortened: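 Steady-state ATPase of detergent-skinned bovine left-ventricular myofibrils (1 mg/mL), PK/LDH-coupled NADH read at 340 nm, in PIPES/MgCl2 buffer pH 6.8 with 50 μM ATP, 0.6 mM EGTA and CaCl2 set for 50% or 75% activation. Inhibition of activity measured.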

[2] = Monkey cassette dosing pharmacokinetics; assay type: in vivo; conditions: IV; for clearance / Vd: male, plasma; for Vd: read-out: Vss
CYP1A2 = molecular target: T1, CYP1A2 (Homo sapiens, UniProt P05177); assay: Time-dependent inhibition of CYP1A2 in human liver microsomes; assay type: in vitro ADME; conditions: for (% Activity NADPH T0)/(% Activity NADPH T30): fold change; for activity at 30 min, 25 µM / activity at 0 min, 25 µM / activity at 30 min, 50 µM / activity at 0 min, 50 µM: pooled human liver microsomes, human liver microsomes; for activity at 30 min, 25 µM / activity at 30 min, 50 µM: after 30 minutes incubation, read-out: % Activity NADPH T30; for activity at 0 min, 25 µM / activity at 0 min, 50 µM: time zero, read-out: % Activity NADPH T0
T1 construct: Pooled human microsomes and selective CYP probe substrates were used; from tissue; host or cells: pooled human liver microsomes
T1 sequence (P05177 1-516): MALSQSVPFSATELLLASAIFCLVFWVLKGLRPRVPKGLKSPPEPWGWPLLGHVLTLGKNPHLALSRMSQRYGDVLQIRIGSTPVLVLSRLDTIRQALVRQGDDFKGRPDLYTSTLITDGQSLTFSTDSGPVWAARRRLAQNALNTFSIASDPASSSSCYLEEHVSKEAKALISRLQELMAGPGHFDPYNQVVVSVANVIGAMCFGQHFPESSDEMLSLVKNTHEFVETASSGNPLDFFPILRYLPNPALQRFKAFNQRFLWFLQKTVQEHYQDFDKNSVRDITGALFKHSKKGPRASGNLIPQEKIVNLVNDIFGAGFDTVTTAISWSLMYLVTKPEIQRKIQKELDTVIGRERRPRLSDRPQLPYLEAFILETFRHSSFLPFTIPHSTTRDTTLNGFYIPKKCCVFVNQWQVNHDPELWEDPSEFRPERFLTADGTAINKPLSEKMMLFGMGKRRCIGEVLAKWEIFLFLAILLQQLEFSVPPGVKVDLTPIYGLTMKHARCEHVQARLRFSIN
Procedure, shortened: (§1)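 Pooled human liver microsomes with selective CYP probe substrates were exposed to compounds at 25 and 50 μM. Marker metabolite formation was quantified by LC-MS/MS as % of uninhibited control at time zero and after 30 min incubation. Time-dependent inhibition is expressed as the fold change in activity between time zero and 30 min.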

CYP2B6 = molecular target: T2, CYP2B6 (Homo sapiens, UniProt P20813); assay: Time-dependent inhibition of CYP2B6 in human liver microsomes; assay type: in vitro ADME; conditions: for (% Activity NADPH T0)/(% Activity NADPH T30): fold change; for activity at 30 min, 25 µM / activity at 0 min, 25 µM / activity at 30 min, 50 µM / activity at 0 min, 50 µM: pooled human liver microsomes, human liver microsomes; for activity at 30 min, 25 µM / activity at 30 min, 50 µM: after 30 minutes incubation, read-out: % Activity NADPH T30; for activity at 0 min, 25 µM / activity at 0 min, 50 µM: time zero, read-out: % Activity NADPH T0
T2 construct: Pooled human microsomes and selective CYP probe substrates were used; from tissue; host or cells: pooled human liver microsomes
T2 sequence (P20813 1-491): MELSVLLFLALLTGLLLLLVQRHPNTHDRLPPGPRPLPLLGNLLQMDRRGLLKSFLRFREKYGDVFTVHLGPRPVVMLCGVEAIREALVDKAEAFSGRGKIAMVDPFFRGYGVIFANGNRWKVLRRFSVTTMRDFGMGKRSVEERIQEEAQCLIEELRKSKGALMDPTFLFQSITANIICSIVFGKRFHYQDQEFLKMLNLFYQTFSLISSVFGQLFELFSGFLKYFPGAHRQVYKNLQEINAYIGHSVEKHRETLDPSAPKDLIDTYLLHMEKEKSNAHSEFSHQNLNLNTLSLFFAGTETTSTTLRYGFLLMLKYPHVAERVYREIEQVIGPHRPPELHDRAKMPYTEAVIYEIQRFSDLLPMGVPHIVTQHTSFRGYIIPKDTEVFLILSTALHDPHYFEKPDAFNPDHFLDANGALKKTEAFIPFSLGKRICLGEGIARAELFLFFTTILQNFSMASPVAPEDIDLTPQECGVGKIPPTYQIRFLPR
Procedure, shortened: as §1

CYP2D6 = molecular target: T3, CYP2D6 (Homo sapiens, UniProt P10635); assay: Time-dependent inhibition of CYP2D6 in human liver microsomes; assay type: in vitro ADME; conditions: for (% Activity NADPH T0)/(% Activity NADPH T30): fold change; for activity at 30 min, 25 µM / activity at 0 min, 25 µM / activity at 30 min, 50 µM / activity at 0 min, 50 µM: pooled human liver microsomes, human liver microsomes; for activity at 30 min, 25 µM / activity at 30 min, 50 µM: after 30 minutes incubation, read-out: % Activity NADPH T30; for activity at 0 min, 25 µM / activity at 0 min, 50 µM: time zero, read-out: % Activity NADPH T0
T3 construct: Pooled human microsomes and selective CYP probe substrates were used; from tissue; host or cells: pooled human liver microsomes
T3 sequence (P10635 whole entry): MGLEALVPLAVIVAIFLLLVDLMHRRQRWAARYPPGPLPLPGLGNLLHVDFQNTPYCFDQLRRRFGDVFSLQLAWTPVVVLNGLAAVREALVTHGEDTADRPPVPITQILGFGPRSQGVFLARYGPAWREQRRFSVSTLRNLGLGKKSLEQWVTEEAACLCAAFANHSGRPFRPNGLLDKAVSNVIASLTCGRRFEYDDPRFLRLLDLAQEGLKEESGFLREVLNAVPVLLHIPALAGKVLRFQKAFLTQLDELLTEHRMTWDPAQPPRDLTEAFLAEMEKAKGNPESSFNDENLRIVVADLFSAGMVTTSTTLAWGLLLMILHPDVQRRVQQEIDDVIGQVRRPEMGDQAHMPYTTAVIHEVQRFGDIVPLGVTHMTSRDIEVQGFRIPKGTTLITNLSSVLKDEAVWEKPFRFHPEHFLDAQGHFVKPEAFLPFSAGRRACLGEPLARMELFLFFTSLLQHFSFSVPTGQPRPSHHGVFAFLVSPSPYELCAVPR
Procedure, shortened: as §1

CYP3A4 = molecular target: T4, CYP3A4 (Homo sapiens, UniProt P08684); assay: Time-dependent inhibition of CYP3A4 in human liver microsomes (testosterone and midazolam probes); assay type: in vitro ADME; conditions: for (% Activity NADPH T0)/(% Activity NADPH T30): fold change; for activity at 30 min, 25 µM / activity at 30 min, 50 µM: human, after 30 minutes incubation, read-out: % Activity NADPH T30; for activity at 30 min, 25 µM / activity at 30 min, 50 µM / activity at 0 min, 25 µM / activity at 0 min, 50 µM: pooled human liver microsomes; for activity at 0 min, 25 µM / activity at 0 min, 50 µM: human liver microsomes, time zero, read-out: % Activity NADPH T0
T4 construct: Pooled human microsomes and selective CYP probe substrates were used; from tissue; host or cells: pooled human liver microsomes
T4 sequence (P08684 whole entry): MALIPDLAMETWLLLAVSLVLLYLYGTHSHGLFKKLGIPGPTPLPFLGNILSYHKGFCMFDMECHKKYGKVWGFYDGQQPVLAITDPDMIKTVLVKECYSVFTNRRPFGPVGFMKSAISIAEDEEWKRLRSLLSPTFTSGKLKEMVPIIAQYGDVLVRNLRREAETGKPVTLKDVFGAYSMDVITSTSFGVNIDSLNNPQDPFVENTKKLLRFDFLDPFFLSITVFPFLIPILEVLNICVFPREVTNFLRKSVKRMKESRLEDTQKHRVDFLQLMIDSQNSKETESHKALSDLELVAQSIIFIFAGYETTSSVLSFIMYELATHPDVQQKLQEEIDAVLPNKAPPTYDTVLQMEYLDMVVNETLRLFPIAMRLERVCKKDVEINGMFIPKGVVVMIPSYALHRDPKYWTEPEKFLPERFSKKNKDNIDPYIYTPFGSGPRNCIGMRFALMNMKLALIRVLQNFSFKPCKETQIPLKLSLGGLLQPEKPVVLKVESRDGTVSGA
Procedure, shortened: as §1

[3] = CYP3A4-M (midazolam probe substrate), 25 μM
[4] = CYP3A4-M (midazolam probe substrate), 50 μM
[5] = CYP3A4-T (testosterone probe substrate), 25 μM
[6] = CYP3A4-T (testosterone probe substrate), 50 μM

Row | SMILES | CDMF IC15 [1] | t l/2 [2] | clearance [2] | Vd [2] | (% Activity NADPH T0)/(% Activity NADPH T30) (CYP1A2; CYP1A2, 25 μM) | (% Activity NADPH T0)/(% Activity NADPH T30) (CYP1A2; CYP1A2, 50 μM) | activity at 30 min, 25 µM (CYP1A2; CYP1A2, 25 μM) | activity at 0 min, 25 µM (CYP1A2; CYP1A2, 25 μM) | activity at 30 min, 50 µM (CYP1A2; CYP1A2, 50 μM) | activity at 0 min, 50 µM (CYP1A2; CYP1A2, 50 μM) | (% Activity NADPH T0)/(% Activity NADPH T30) (CYP2B6; CYP2B6, 25 μM) | (% Activity NADPH T0)/(% Activity NADPH T30) (CYP2B6; CYP2B6, 50 μM) | activity at 30 min, 25 µM (CYP2B6; CYP2B6, 25 μM) | activity at 0 min, 25 µM (CYP2B6; CYP2B6, 25 μM) | activity at 30 min, 50 µM (CYP2B6; CYP2B6, 50 μM) | activity at 0 min, 50 µM (CYP2B6; CYP2B6, 50 μM) | (% Activity NADPH T0)/(% Activity NADPH T30) (CYP2D6; CYP2D6, 25 μM) | (% Activity NADPH T0)/(% Activity NADPH T30) (CYP2D6; CYP2D6, 50 μM) | activity at 30 min, 25 µM (CYP2D6; CYP2D6, 25 μM) | activity at 0 min, 25 µM (CYP2D6; CYP2D6, 25 μM) | other results
1 | CC(C)N1CC(=O)N(Cc2ccc(C(F)(F)F)cc2)C2(CN(c3cccnn3)C2)C1=O [Compound 13, 8-isopropyl-2-(pyridazin-3-yl)-5-(4-(trifluoromethyl)benzyl)-2,5,8-triazaspiro[3.5]nonane-6,9-dione] | 2000 nM | 1.83 h | 21.4 mL/min/kg | 3.15 L/kg | 0.9 | 0.8 | 99% | 88% | 110% | 92% | 0.9 | 1.1 | 116% | 102% | 81% | 90% | 1.0 | 1.4 | 100% | 96% | activity at 30 min, 50 µM (CYP2D6; CYP2D6, 50 μM): 72%; activity at 0 min, 50 µM (CYP2D6; CYP2D6, 50 μM): 98%; (% Activity NADPH T0)/(% Activity NADPH T30) (CYP3A4; [3]): 1.0; (% Activity NADPH T0)/(% Activity NADPH T30) (CYP3A4; [4]): 0.7; (% Activity NADPH T0)/(% Activity NADPH T30) (CYP3A4; [5]): 1.0; (% Activity NADPH T0)/(% Activity NADPH T30) (CYP3A4; [6]): 0.9; activity at 30 min, 25 µM (CYP3A4; [3]): 88%; activity at 30 min, 50 µM (CYP3A4; [4]): 97%; activity at 30 min, 25 µM (CYP3A4; [5]): 77%; activity at 30 min, 50 µM (CYP3A4; [6]): 65%; activity at 0 min, 25 µM (CYP3A4; [3]): 87%; activity at 0 min, 50 µM (CYP3A4; [4]): 72%; activity at 0 min, 25 µM (CYP3A4; [5]): 74%; activity at 0 min, 50 µM (CYP3A4; [6]): 56%
2 | C[C@H]1CC[C@H](N2CC(=O)N(Cc3ccc(Cl)cc3)C3(CN(C(N)=O)C3)C2=O)CC1 [Compound 18, 5-(4-chlorobenzyl)-8-((1r,4r)-4-methylcyclohexyl)-6,9-dioxo-2,5,8-triazaspiro[3.5]nonane-2-carboxamide] | 1200 nM | 8.04 h | 12.5 mL/min/kg | 10.2 L/kg | 0.9 | 1.0 | 99% | 85% | 90% | 92% | 0.8 | 0.9 | 103% | 80% | 83% | 76% | 1.0 | 1.1 | 105% | 103% | activity at 30 min, 50 µM (CYP2D6; CYP2D6, 50 μM): 91%; activity at 0 min, 50 µM (CYP2D6; CYP2D6, 50 μM): 104%; (% Activity NADPH T0)/(% Activity NADPH T30) (CYP3A4; [3]): 1.8; (% Activity NADPH T0)/(% Activity NADPH T30) (CYP3A4; [4]): 1.2; (% Activity NADPH T0)/(% Activity NADPH T30) (CYP3A4; [5]): 1.2; (% Activity NADPH T0)/(% Activity NADPH T30) (CYP3A4; [6]): 1.1; activity at 30 min, 25 µM (CYP3A4; [3]): 71%; activity at 30 min, 50 µM (CYP3A4; [4]): 102%; activity at 30 min, 25 µM (CYP3A4; [5]): 85%; activity at 30 min, 50 µM (CYP3A4; [6]): 75%; activity at 0 min, 25 µM (CYP3A4; [3]): 125%; activity at 0 min, 50 µM (CYP3A4; [4]): 126%; activity at 0 min, 25 µM (CYP3A4; [5]): 100%; activity at 0 min, 50 µM (CYP3A4; [6]): 85%
